Experiments:
Urotensin-2 receptor [1] = molecular target: T1, Urotensin-2 receptor (Homo sapiens, UniProt Q9UKP6); test: Agonist activity at human UT receptor expressed in HEK293 cells co-expressing Gq-polycistronic BRET biosensor assessed as induction of Gq activation measured for 5 mins by luminescence detection based BRET assay; assay type: functional, cell-based
T1 sequence (Q9UKP6 whole entry): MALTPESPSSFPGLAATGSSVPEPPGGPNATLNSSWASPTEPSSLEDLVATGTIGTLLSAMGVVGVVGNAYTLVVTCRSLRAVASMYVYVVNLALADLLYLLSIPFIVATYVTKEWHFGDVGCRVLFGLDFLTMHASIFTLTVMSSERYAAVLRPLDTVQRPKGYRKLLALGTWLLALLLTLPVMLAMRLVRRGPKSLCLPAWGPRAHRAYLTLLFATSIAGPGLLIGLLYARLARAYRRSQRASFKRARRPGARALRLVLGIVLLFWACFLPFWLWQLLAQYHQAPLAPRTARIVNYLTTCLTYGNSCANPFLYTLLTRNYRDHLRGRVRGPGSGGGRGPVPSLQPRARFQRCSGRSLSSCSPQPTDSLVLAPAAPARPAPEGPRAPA

Urotensin-2 receptor [2] = molecular target: T1, Urotensin-2 receptor; test: Displacement of [Na125I]-synthetic URP from human UT receptor expressed in HEK293 cell membranes incubated for 2 hrs by gamma-counting
Urotensin-2 receptor [3] = molecular target: T2, Urotensin-2 receptor (Rattus norvegicus, UniProt P49684); test: Agonist activity at UT receptor in Sprague-Dawley rat thoracic aortic ring assessed as induction of contraction; assay type: functional
T2 sequence (P49684 whole entry): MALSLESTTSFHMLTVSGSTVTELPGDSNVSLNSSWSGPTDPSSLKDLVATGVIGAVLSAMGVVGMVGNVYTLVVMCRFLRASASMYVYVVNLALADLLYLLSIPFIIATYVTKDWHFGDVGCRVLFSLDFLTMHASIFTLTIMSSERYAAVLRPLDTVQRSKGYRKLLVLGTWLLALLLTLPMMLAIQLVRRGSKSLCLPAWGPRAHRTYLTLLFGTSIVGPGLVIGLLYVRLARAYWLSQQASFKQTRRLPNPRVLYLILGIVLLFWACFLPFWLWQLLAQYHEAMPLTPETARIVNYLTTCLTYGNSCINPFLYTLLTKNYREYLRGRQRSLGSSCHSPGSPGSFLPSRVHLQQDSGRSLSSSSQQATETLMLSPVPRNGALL

Urotensin-2 receptor [4] = molecular target: T1, Urotensin-2 receptor; test: Agonist activity at human UT receptor expressed in HEK293 cells co-expressing beta-arrestin1-polycistronic BRET biosensor assessed as induction of beta-arrestin1 recruitment measured for 5 mins by luminescence detection based BRET assay; assay type: functional, cell-based
Urotensin-2 receptor [5] = molecular target: T1, Urotensin-2 receptor; test: Agonist activity at human UT receptor expressed in HEK293 cells co-expressing G12-polycistronic BRET biosensor assessed as induction of G12 activation measured for 5 mins by luminescence detection based BRET assay; assay type: functional, cell-based
[6] = molecular target: T3, Urotensin-2 receptor (Homo sapiens) (UniProt Q9UKP6); test: (§1) Bias factor, ratio of deltalog(Tau/KA) for agonist activity at human UT receptor expressed in HEK293 cells co-expressing beta-arrestin1-polycistronic BRET biosensor assessed as induction of beta-arrestin1 recruitment by luminescence detection based BRET assay to deltalog(Tau/KA) for agonist activity at human UT receptor expressed in HEK293 cells co-expressing Gq-polycistronic BRET biosensor assessed as induction of Gq activation by luminescence detection based BRET assay; assay type: functional, cell-based
T3 sequence (whole entry): T1 sequence (Q9UKP6 whole entry)

[7] = molecular target: T4, Urotensin-2 receptor (Rattus norvegicus) (UniProt P49684); test: Agonist activity at UT receptor in Sprague-Dawley rat thoracic aortic ring assessed as induction of contraction relative to KCl-induced contraction; assay type: functional
T4 sequence (whole entry): T2 sequence (P49684 whole entry)

[8] = molecular target: T4, Urotensin-2 receptor (Rattus norvegicus); test: (§2) Antagonist activity at UT receptor in Sprague-Dawley rat thoracic aortic ring assessed as reduction in URP-induced contraction by measuring Emax for […] at 1 uM pre-incubated for 30 mins […] relative to KCl-induced contraction (reference value: 107 +/- 3%); assay type: functional
[9] = molecular target: T3, Urotensin-2 receptor (Homo sapiens); test: Bias factor, ratio of deltalog(Tau/KA) for agonist activity at human UT receptor expressed in HEK293 cells co-expressing Gq-polycistronic BRET biosensor assessed as induction of Gq activation by luminescence detection based BRET assay to deltalog(Tau/KA) for agonist activity at human UT receptor expressed in HEK293 cells co-expressing beta-arrestin1-polycistronic BRET biosensor assessed as induction of beta-arrestin1 recruitment by luminescence detection based BRET assay; assay type: functional, cell-based
[10] = molecular target: T3, Urotensin-2 receptor (Homo sapiens); test: as §1, with “G12-polycistronic” for “Gq-polycistronic”, “G12” for “Gq”; assay type: functional, cell-based
[11] = molecular target: T3, Urotensin-2 receptor (Homo sapiens); test: Agonist activity at human UT receptor expressed in HEK293 cells co-expressing G12-polycistronic BRET biosensor assessed as induction of G12 activation measured for 5 mins by luminescence detection based BRET assay relative to 10 uM URP; assay type: functional, cell-based
[12] = molecular target: T3, Urotensin-2 receptor (Homo sapiens); test: as §1, with “Selectivity index, change in” for “Bias factor, ratio of”, “G12-polycistronic” for “beta-arrestin1-polycistronic”, “G12 activation” for “beta-arrestin1 recruitment”; assay type: functional, cell-based
[13] = molecular target: T3, Urotensin-2 receptor (Homo sapiens); test: as §1, with “G12-polycistronic” for “beta-arrestin1-polycistronic”, “G12 activation” for “beta-arrestin1 recruitment”; assay type: functional, cell-based
[14] = molecular target: T3, Urotensin-2 receptor (Homo sapiens); test: Selectivity index, change in deltalog(Tau/KA) for agonist activity at human UT receptor expressed in HEK293 cells co-expressing beta-arrestin1-polycistronic BRET biosensor assessed as induction of beta-arrestin1 recruitment by luminescence detection based BRET assay to deltalog(Tau/KA) for agonist activity at human UT receptor expressed in HEK293 cells co-expressing G12-polycistronic BRET biosensor assessed as induction of G12 activation by luminescence detection based BRET assay to; assay type: functional, cell-based
[15] = molecular target: T3, Urotensin-2 receptor (Homo sapiens); test: Agonist activity at human UT receptor expressed in HEK293 cells co-expressing beta-arrestin1-polycistronic BRET biosensor assessed as induction of beta-arrestin1 recruitment measured for 5 mins by luminescence detection based BRET assay relative to 10 uM URP; assay type: functional, cell-based
[16] = molecular target: T3, Urotensin-2 receptor (Homo sapiens); test: Agonist activity at human UT receptor expressed in HEK293 cells co-expressing Gq-polycistronic BRET biosensor assessed as induction of Gq activation measured for 5 mins by luminescence detection based BRET assay relative to 10 uM URP; assay type: functional, cell-based
[17] = molecular target: T4, Urotensin-2 receptor (Rattus norvegicus); test: as §2, with “urotensin-2-induced” for “URP-induced”, “101” for “107”, “4%)” for “3%)”; assay type: functional
[18] = molecular target: T3, Urotensin-2 receptor (Homo sapiens); test: Selectivity index, change in deltalog(Tau/KA) for agonist activity at human UT receptor expressed in HEK293 cells co-expressing Gq-polycistronic BRET biosensor assessed as induction of Gq activation by luminescence detection based BRET assay to deltalog(Tau/KA) for agonist activity at human UT receptor expressed in HEK293 cells co-expressing beta-arrestin1-polycistronic BRET biosensor assessed as induction of beta-arrestin1 recruitment by luminescence detection based BRET assay; assay type: functional, cell-based
[19] = molecular target: T3, Urotensin-2 receptor (Homo sapiens); test: Bias factor, ratio of deltalog(Tau/KA) for agonist activity at human UT receptor expressed in HEK293 cells co-expressing G12-polycistronic BRET biosensor assessed as induction of G12 activation by luminescence detection based BRET assay to deltalog(Tau/KA) for agonist activity at human UT receptor expressed in HEK293 cells co-expressing beta-arrestin1-polycistronic BRET biosensor assessed as induction of beta-arrestin1 recruitment by luminescence detection based BRET assay; assay type: functional, cell-based
[20] = molecular target: T3, Urotensin-2 receptor (Homo sapiens); test: Bias factor, ratio of deltalog(Tau/KA) for agonist activity at human UT receptor expressed in HEK293 cells co-expressing Gq-polycistronic BRET biosensor assessed as induction of Gq activation by luminescence detection based BRET assay to deltalog(Tau/KA) for agonist activity at human UT receptor expressed in HEK293 cells co-expressing G12-polycistronic BRET biosensor assessed as induction of G12 activation by luminescence detection based BRET assay; assay type: functional, cell-based

Row | EC50 (Urotensin-2 receptor [1]) [nM] | IC50 (Urotensin-2 receptor [2]) [nM] | EC50 (Urotensin-2 receptor [3]) [nM] | EC50 (Urotensin-2 receptor [4]) [nM] | EC50 (Urotensin-2 receptor [5]) [nM] | fold change (FC) [6] | Emax [7] [%] | Emax [8] [%] | fold change (FC) [9] | fold change (FC) [10] | Emax [11] [%] | deltalog(Tau/KA) [12] | fold change (FC) [13] | deltadeltalog(Tau/KA) (beta-arrestin1 selectivity index) [14] | Emax [15] [%] | Emax [16] [%] | Emax [17] [%] | selectivity index, deltadeltalog(Tau/KA) [18] | fold change (FC) [19] | fold change (FC) [20] | Structure (SMILES)
1 | 46.8 | > 1000 | > 10000 | 347 | 123 | – | – | – | – | – | – | – | – | – | – | – | – | – | – | – | CC(C)[C@H](NC(=O)[C@@H]1CSSC[C@H](NC(=O)[C@@H](N)CC(=O)O)C(=O)N[C@H](Cc2ccc(I)cc2)C(=O)N[C@@H](Cc2c[nH]c3ccccc23)C(=O)N[C@@H](CCCCN)C(=O)N[C@@H](Cc2ccc(O)cc2)C(=O)N1)C(=O)O
2 | – | – | – | – | – | 2.2 | 8 | 104 | 0.5 | 0.2 | 72 | 1.08 | 12.1 | -0.75 | 36 | 101 | 100 | -0.34 | 5.6 | 0.1 | CC(C)[C@H](NC(=O)[C@@H]1CSSC[C@H](NC(=O)[C@@H](C)N)C(=O)N[C@@H](Cc2ccc(C#Cc3ccccc3)cc2)C(=O)N[C@@H](Cc2c[nH]c3ccccc23)C(=O)N[C@@H](CCCCN)C(=O)N[C@@H](Cc2ccc(O)cc2)C(=O)N1)C(=O)O
3 | 3.63 | 19.5 | 6.92 | 145 | 91.2 | 1 | 107 | – | 1 | 1 | – | 0 | 1 | 0 | – | – | – | 0 | 1 | 1 | CC(C)[C@H](NC(=O)[C@@H]1CSSC[C@H](NC(=O)[C@H](C)N)C(=O)N[C@@H](Cc2ccccc2)C(=O)N[C@@H](Cc2c[nH]c3ccccc23)C(=O)N[C@@H](CCCCN)C(=O)N[C@@H](Cc2ccc(O)cc2)C(=O)N1)C(=O)O
4 | 7.08 | 3.98 | 10.5 | 191 | 36.3 | 1.2 | 112 | – | 0.8 | 0.8 | 94 | 0.22 | 1.7 | -0.13 | 104 | 100 | – | -0.1 | 1.3 | 0.6 | CC(C)[C@H](NC(=O)[C@@H]1CSSC[C@H](NC(=O)[C@@H](N)CC(=O)O)C(=O)N[C@@H](Cc2ccc(I)cc2)C(=O)N[C@@H](Cc2c[nH]c3ccccc23)C(=O)N[C@@H](CCCCN)C(=O)N[C@@H](Cc2ccc(O)cc2)C(=O)N1)C(=O)O
5 | – | – | – | – | – | 8.6 | 20 | 100 | 0.1 | 1.1 | 68 | 0.89 | 7.8 | 0.04 | 99 | 87 | 52 | -0.94 | 0.9 | 0.1 | CC(C)[C@H](NC(=O)[C@@H]1CSSC[C@H](NC(=O)[C@@H](C)N)C(=O)N[C@@H](Cc2ccc(I)cc2)C(=O)N[C@@H](Cc2c[nH]c3ccccc23)C(=O)N[C@@H](CCCCN)C(=O)N[C@@H](Cc2ccc(O)cc2)C(=O)N1)C(=O)O
6 | – | – | – | – | – | 14.4 | 10 | 91 | 0.1 | 0.3 | 74 | 1.7 | 50 | -0.54 | 60 | 102 | 95 | -1.16 | 3.5 | 0 | CC(C)[C@H](NC(=O)[C@@H]1CSSC[C@H](NC(=O)[C@@H](C)N)C(=O)N[C@@H](Cc2ccc(-c3ccccc3)cc2)C(=O)N[C@@H](Cc2c[nH]c3ccccc23)C(=O)N[C@@H](CCCCN)C(=O)N[C@@H](Cc2ccc(O)cc2)C(=O)N1)C(=O)O
7 | 617 | > 1000 | 1.35 | 3310 | 380 | – | – | – | – | – | – | – | – | – | – | – | – | – | – | – | CC(C)[C@H](NC(=O)[C@@H]1CSSC[C@H](NC(=O)[C@H](C)N)C(=O)N[C@H](Cc2ccc(C#Cc3ccccc3)cc2)C(=O)N[C@@H](Cc2c[nH]c3ccccc23)C(=O)N[C@@H](CCCCN)C(=O)N[C@@H](Cc2ccc(O)cc2)C(=O)N1)C(=O)O
8 | 3550 | > 1000 | 1.91 | 1150 | 661 | – | – | – | – | – | – | – | – | – | – | – | – | – | – | – | CC(C)[C@H](NC(=O)[C@@H]1CSSC[C@H](NC(=O)[C@H](C)N)C(=O)N[C@H](Cc2ccc(-c3ccccc3)cc2)C(=O)N[C@@H](Cc2c[nH]c3ccccc23)C(=O)N[C@@H](CCCCN)C(=O)N[C@@H](Cc2ccc(O)cc2)C(=O)N1)C(=O)O
9 | 53.7 | > 1000 | 13.8 | 355 | 89.1 | – | – | – | – | – | – | – | – | – | – | – | – | – | – | – | CC(C)[C@H](NC(=O)[C@@H]1CSSC[C@H](NC(=O)[C@H](C)N)C(=O)N[C@H](Cc2ccc(I)cc2)C(=O)N[C@@H](Cc2c[nH]c3ccccc23)C(=O)N[C@@H](CCCCN)C(=O)N[C@@H](Cc2ccc(O)cc2)C(=O)N1)C(=O)O
10 | 10.7 | 5.62 | 31.6 | 182 | 47.9 | 2.1 | 53 | – | 0.5 | 2.8 | 73 | -0.12 | 0.8 | 0.45 | 101 | 97 | – | -0.32 | 0.4 | 1.3 | CC(C)[C@H](NC(=O)[C@@H]1CSSC[C@H](NC(=O)[C@H](C)N)C(=O)N[C@@H](Cc2ccc(I)cc2)C(=O)N[C@@H](Cc2c[nH]c3ccccc23)C(=O)N[C@@H](CCCCN)C(=O)N[C@@H](Cc2ccc(O)cc2)C(=O)N1)C(=O)O
